Earlier results as cited in patent US20210361620A1 (Biosential, Inc., priority 2018, published 2021).

Key:
[1] = system: subjects with mild insomnia or longer-than-average sleep latency; conditions: for effect on sleep (hypnotic effect): ingestion of a sufficient quantity
humans = conditions: for potential side effects of supplementation: tryptophan: dose not given, melatonin: 1 mg to 5 mg, uncommon
serum albumin = serum albumin (Homo sapiens, UniProt P02768); conditions: after ingestion and absorption
Sequence of serum albumin (P02768 25-609): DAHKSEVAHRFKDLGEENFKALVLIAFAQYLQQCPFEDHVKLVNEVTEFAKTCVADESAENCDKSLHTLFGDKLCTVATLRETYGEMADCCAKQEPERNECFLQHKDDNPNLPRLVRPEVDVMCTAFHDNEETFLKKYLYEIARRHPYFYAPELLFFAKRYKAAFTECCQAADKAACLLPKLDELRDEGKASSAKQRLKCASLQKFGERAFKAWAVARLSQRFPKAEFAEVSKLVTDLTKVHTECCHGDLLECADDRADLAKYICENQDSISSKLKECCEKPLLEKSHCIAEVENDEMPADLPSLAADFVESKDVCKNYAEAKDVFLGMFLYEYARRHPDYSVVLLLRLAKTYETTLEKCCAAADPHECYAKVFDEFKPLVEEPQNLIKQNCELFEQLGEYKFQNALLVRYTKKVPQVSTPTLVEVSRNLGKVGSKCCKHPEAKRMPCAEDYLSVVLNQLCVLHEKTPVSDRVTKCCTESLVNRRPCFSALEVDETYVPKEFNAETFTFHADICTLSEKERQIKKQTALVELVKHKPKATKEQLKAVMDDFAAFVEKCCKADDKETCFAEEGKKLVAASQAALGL

Compound | effect on sleep (hypnotic effect) [1] | side effects of supplementation during the day (humans; daytime use) | potential side effects of supplementation (humans) | effect on glucose metabolism (rats) | effect on sleep architecture at very high dose ([1]; doses above 12,000 mg) | fraction bound to serum albumin in the circulation (serum albumin) | fraction circulating as free tryptophan (serum albumin) [%]
COc1ccc2[nH]cc(CCNC(C)=O)c2c1 [melatonin] | reduce sleep latency, increase sleep duration and efficiency, and regulate the sleep-wake cycle | sleepiness and hypothermia | drowsiness, headache, dizziness and nausea | antihyperglycemic effect | – | – | –
N[C@@H](Cc1c[nH]c2ccccc12)C(=O)O [tryptophan] | consistently reduces sleep latency | – | drowsiness and minimal weight loss | – | disrupt sleep architecture | approximately 80% | 20
